# Measured values published in article PMC10321317 (Genome Biology and Evolution, 2023).
# pEC50: −log10 of the molar value. Entries after “also recorded” stand apart in the source; their conditions may differ. Square brackets hold non-standard residues; d marks the D form. Ends that are not written are not given here. Peptide text beside a SMILES is read from it. pGlu = O=C1CC[C@@H](C(=O)O)N1
# Tests used:
# B. floridae GnRHR1 = target: T1, B. floridae GnRHR1 (Branchiostoma floridae, UniProt C0IP19); experiment: Luminescence response in HEK293-G5a cells expressing B. floridae GnRHR1 (with Gαqi9); assay type: cell-based
# T1 sequence (C0IP19 1-403): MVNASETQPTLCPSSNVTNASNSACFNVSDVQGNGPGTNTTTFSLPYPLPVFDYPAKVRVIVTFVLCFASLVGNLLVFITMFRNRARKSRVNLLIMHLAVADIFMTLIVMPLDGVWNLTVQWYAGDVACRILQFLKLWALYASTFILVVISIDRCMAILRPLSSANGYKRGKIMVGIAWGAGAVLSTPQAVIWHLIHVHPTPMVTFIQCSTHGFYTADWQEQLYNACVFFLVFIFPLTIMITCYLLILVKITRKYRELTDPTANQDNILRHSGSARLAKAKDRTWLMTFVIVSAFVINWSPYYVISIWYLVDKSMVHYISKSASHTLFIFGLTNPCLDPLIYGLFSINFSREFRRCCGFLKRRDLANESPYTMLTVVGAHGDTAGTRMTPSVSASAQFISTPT
# From the text: (§1) For this purpose, we expressed individual receptors in a heterologous expression system comprising human embryo kidney 293 cells (HEK293-G5a) cells and monitored luminescence responses to three synthetic peptides.
# (§2) Five millimoles of stock solutions of all peptides were first prepared in 50% Dimethyl sulfoxide. […] These receptors were codon-optimized for mammalian cell lines, synthesized and cloned into pcDNA3.4(+) vector by Genscript synthesis services. A 5′ partial Kozak translation initiation sequence (CCACC) was also included to improve expression. The codon-optimized receptor sequences are provided in supplementary file 9, Supplementary Material online. HEK293-G5a (Angio-proteomie CAT no. cAP-0200GFP-AEQ-Cyto) cells were cultured in 96 well-plates containing 100 μl of Dublecco’s Modified Eagle medium (DMEM; Thermo; Cat. No. 10566016) supplemented with 10% foetal bovine serum (Thermo; Cat. No. 10082147). The plates were kept in an incubator at 37°C and 5% CO2. Upon reaching 85% confluency, cells were co-transfected with plasmids encoding individual receptors or the empty pcDNA3.1 + vector (control), and the Gαqi9 promiscuous protein [Addgene; Cat. No. 125711 {[Masharina et al. 2012]}], as described previously ([Yañez-Guerra et al. 2022]). Transfections were carried out with 60 ng of each plasmid and 0.45 μl of the transfection reagent Transfectamine 5,000 (AAT-bioquest; Cat. No. 60022) per well. Two days post-transfection, the media was replaced with fresh DMEM medium supplemented with […] coelenterazine-H (Thermo Fisher Scientific; Cat. No. C6780). The cells were incubated for 2 h and then used for the luminescence assay. Various concentrations of the three synthetic peptides ranging from 10^−4 M to 10^−12 M were prepared in DMEM media and tested on the cells. Luminescence levels were recorded and integrated over a 65-s measurement period in a FlexStation 3 Multi-Mode Microplate Reader (Molecular Devices). A minimum of two independent transfections (biological replicates) for each receptor and two–three technical replicates for each peptide concentration were performed. […]
# B. floridae GnRHR2 = target: T2, B. floridae GnRHR2 (Branchiostoma floridae, UniProt C0IP20); experiment: Luminescence response in HEK293-G5a cells expressing B. floridae GnRHR2 (with Gαqi9); assay type: cell-based
# T2 sequence (C0IP20 1-397): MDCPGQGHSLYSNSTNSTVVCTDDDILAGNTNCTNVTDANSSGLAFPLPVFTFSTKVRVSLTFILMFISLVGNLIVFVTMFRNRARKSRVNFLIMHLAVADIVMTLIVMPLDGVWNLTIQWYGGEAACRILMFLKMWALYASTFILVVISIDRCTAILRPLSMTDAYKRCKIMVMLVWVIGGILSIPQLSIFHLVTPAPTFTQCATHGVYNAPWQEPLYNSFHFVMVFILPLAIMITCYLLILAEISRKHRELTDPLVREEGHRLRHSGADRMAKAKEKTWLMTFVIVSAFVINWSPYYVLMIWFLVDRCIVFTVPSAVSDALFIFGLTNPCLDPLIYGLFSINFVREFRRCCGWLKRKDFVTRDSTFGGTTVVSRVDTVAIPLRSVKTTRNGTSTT
# From the text: as §1, §2
# B. floridae CRZR1 = target: T3, B. floridae CRZR1 (Branchiostoma floridae, UniProt C0IP22); experiment: Luminescence response in HEK293-G5a cells expressing B. floridae CRZR1 (with Gαqi9); assay type: cell-based
# T3 sequence (C0IP22 1-831): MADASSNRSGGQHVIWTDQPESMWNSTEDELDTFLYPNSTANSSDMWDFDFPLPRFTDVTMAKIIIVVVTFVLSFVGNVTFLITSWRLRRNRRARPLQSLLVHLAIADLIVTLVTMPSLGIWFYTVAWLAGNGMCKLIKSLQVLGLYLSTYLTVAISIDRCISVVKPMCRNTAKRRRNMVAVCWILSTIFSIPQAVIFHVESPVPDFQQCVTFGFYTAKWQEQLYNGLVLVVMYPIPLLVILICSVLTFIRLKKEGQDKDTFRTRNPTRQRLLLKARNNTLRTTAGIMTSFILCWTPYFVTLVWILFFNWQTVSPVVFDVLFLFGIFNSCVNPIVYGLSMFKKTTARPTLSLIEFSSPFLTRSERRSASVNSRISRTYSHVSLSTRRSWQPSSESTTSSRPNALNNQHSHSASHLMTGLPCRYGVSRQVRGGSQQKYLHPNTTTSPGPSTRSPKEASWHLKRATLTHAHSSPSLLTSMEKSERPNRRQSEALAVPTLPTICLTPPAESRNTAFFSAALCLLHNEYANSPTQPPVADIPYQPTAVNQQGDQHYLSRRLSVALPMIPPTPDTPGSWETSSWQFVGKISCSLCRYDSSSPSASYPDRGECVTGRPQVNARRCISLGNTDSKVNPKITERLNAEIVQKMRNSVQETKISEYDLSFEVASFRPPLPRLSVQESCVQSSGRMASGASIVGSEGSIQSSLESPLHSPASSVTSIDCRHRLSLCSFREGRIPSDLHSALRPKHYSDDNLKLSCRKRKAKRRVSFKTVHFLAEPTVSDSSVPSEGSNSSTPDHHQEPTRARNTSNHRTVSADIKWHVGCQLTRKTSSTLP
# From the text: as §1, §2
# B. floridae CRZR2 = target: T4, B. floridae CRZR2 (Branchiostoma floridae, UniProt C4N9P5); experiment: Luminescence response in HEK293-G5a cells expressing B. floridae CRZR2 (with Gαqi9); assay type: cell-based
# T4 sequence (C4N9P5 1-421): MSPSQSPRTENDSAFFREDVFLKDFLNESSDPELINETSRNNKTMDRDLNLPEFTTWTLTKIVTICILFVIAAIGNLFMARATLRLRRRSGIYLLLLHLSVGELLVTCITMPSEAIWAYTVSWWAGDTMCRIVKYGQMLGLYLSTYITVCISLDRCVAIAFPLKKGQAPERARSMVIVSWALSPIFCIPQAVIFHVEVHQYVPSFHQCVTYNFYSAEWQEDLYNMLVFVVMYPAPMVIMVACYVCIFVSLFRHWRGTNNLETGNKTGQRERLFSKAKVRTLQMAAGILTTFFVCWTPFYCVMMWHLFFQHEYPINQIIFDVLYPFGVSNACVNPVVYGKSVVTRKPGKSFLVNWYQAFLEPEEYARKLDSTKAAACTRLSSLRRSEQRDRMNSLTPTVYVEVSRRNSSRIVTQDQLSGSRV
# From the text: as §1
# Five millimoles of stock solutions of all peptides were first prepared in 50% Dimethyl sulfoxide. […] These receptors were codon-optimized for mammalian cell lines, synthesized and cloned into pcDNA3.4(+) vector by Genscript synthesis services. A 5′ partial Kozak translation initiation sequence (CCACC) was also included to improve expression. The codon-optimized receptor sequences are provided in supplementary file 9, Supplementary Material online. HEK293-G5a (Angio-proteomie CAT no. cAP-0200GFP-AEQ-Cyto) cells were cultured in 96 well-plates containing 100 μl of Dublecco’s Modified Eagle medium (DMEM; Thermo; Cat. No. 10566016) supplemented with 10% foetal bovine serum (Thermo; Cat. No. 10082147). The plates were kept in an incubator at 37°C and 5% CO2. […] The cells were incubated for 2 h and then used for the luminescence assay. […] Luminescence levels were recorded and integrated over a 65-s measurement period in a FlexStation 3 Multi-Mode Microplate Reader (Molecular Devices). […]
# B. floridae CRZR3 = target: T5, B. floridae CRZR3 (Branchiostoma floridae, UniProt A0A9J7HT38); experiment: Luminescence response in HEK293-G5a cells expressing B. floridae CRZR3 (with Gαqi9); assay type: cell-based; settings: for pEC50: fig. 2D, HEK293-G5a, Gαqi9, 10^−4 M to 10^−12 M in DMEM, luminescence integrated over 65 s, normalized to maximum response, four-parameter curve, minimum of two independent transfections, read-out: EC50 values for the dose–response curves, CRZR3
# T5 sequence (A0A9J7HT38 1-394): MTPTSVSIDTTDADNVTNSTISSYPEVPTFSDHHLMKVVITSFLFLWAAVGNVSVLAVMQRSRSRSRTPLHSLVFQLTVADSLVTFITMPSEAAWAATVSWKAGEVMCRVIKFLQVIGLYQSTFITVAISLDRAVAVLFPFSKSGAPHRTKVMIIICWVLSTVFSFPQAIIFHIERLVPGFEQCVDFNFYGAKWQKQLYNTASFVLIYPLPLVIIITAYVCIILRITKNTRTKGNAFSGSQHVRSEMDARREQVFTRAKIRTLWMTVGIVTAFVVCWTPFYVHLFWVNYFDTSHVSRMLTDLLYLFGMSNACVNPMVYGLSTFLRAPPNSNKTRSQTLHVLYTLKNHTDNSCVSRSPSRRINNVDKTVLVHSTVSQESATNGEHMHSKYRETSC
# From the text: as §1
# Five millimoles of stock solutions of all peptides were first prepared in 50% Dimethyl sulfoxide. […] These receptors were codon-optimized for mammalian cell lines, synthesized and cloned into pcDNA3.4(+) vector by Genscript synthesis services. A 5′ partial Kozak translation initiation sequence (CCACC) was also included to improve expression. The codon-optimized receptor sequences are provided in supplementary file 9, Supplementary Material online. HEK293-G5a (Angio-proteomie CAT no. cAP-0200GFP-AEQ-Cyto) cells were cultured in 96 well-plates containing 100 μl of Dublecco’s Modified Eagle medium (DMEM; Thermo; Cat. No. 10566016) supplemented with 10% foetal bovine serum (Thermo; Cat. No. 10082147). The plates were kept in an incubator at 37°C and 5% CO2. Upon reaching 85% confluency, cells were co-transfected with plasmids encoding individual receptors or the empty pcDNA3.1 + vector (control), and the Gαqi9 promiscuous protein [Addgene; Cat. No. 125711 {[Masharina et al. 2012]}], as described previously ([Yañez-Guerra et al. 2022]). Transfections were carried out with 60 ng of each plasmid and 0.45 μl of the transfection reagent Transfectamine 5,000 (AAT-bioquest; Cat. No. 60022) per well. Two days post-transfection, the media was replaced with fresh DMEM medium supplemented with […] coelenterazine-H (Thermo Fisher Scientific; Cat. No. C6780). The cells were incubated for 2 h and then used for the luminescence assay. Various concentrations of the three synthetic peptides ranging from 10^−4 M to 10^−12 M were prepared in DMEM media and tested on the cells. Luminescence levels were recorded and integrated over a 65-s measurement period in a FlexStation 3 Multi-Mode Microplate Reader (Molecular Devices). A minimum of two independent transfections (biological replicates) for each receptor and two–three technical replicates for each peptide concentration were performed. The responses were normalized to the maximum response obtained following the addition of peptide in each experiment (100% activation) and to the response obtained with the vehicle media (0% activation). Normalized data from the independent transfections was used to plot the dose–response curves (fitted with a four-parameter curve) using the package drc in R ([Ritz et al. 2015]). The raw data for the emtpy-vector control and receptor characterization are provided in supplementary files 10 and 11, Supplementary Material online, respectively. The script used for the dose–response curve analysis is available on Github (https://github.com/Imnotabioinformatician/Branchiostoma_Dose_response_curves).
# [1] = target: one of the two CRZ-like receptors; design: method as in Roch, Tello, et al. 2014; settings: ref Roch, Tello, et al. 2014; cited from earlier work
Compound,"activation of GnRHR1 (in words) (B. floridae GnRHR1; HEK293-G5a cells, luminescence)","activation of GnRHR2 (in words) (B. floridae GnRHR2; HEK293-G5a cells, luminescence)","EC50 for the response, CRZR1 (in words) (B. floridae CRZR1)",activation of CRZR1 (in words) (B. floridae CRZR1),"EC50 for the response, CRZR2 (in words) (B. floridae CRZR2)",activation of CRZR2 (in words) (B. floridae CRZR2),"EC50 for the response, CRZR3 (in words) (B. floridae CRZR3; HEK293-G5a cells, luminescence)","activation of CRZR3 (in words) (B. floridae CRZR3; HEK293-G5a cells, luminescence)",pEC50 (B. floridae CRZR3),activation of one of the two CRZ-like receptors (in words) [1],"EC50 for the response, GnRHR1 (in words) (B. floridae GnRHR1; HEK293-G5a cells, luminescence)","pEC50 (B. floridae GnRHR1; fig. 2D, HEK293-G5a, Gαqi9, 10^−4 M to 10^−12 M in DMEM, luminescence integrated over 65 s, normalized to maximum response, four-parameter curve, minimum of two independent transfections, read-out: EC50 values for the dose–response curves, GnRHR1)","EC50 for the response, GnRHR2 (in words) (B. floridae GnRHR2; HEK293-G5a cells, luminescence)","pEC50 (B. floridae GnRHR2; fig. 2D, HEK293-G5a, Gαqi9, 10^−4 M to 10^−12 M in DMEM, luminescence integrated over 65 s, normalized to maximum response, four-parameter curve, minimum of two independent transfections, read-out: EC50 values for the dose–response curves, GnRHR2)"
CC[C@H](C)[C@H](NC(=O)[C@@H]1CCC(=O)N1)C(=O)N[C@@H](CC(C)C)C(=O)N[C@@H](CS)C(=O)N[C@@H](C)C(=O)N[C@@H](CCCNC(=N)N)C(=O)N[C@@H](C)C(=O)N[C@@H](Cc1ccccc1)C(=O)N[C@H](C(=O)N[C@@H](Cc1ccc(O)cc1)C(=O)N[C@H](C(=O)N[C@@H](Cc1c[nH]cn1)C(=O)N[C@H](C(=O)N[C@@H](Cc1c[nH]c2ccccc12)C(N)=O)[C@@H](C)O)[C@@H](C)O)[C@@H](C)O [CRZ-ext] ([pGlu]ILCARAFTYTHTW-NH2),Neither of these two receptors were activated,Neither of these two receptors were activated,equally high,"all activated by CRZ, GnRH, and CRZ-ext; also recorded: also activated by CRZ-ext",high nanomolar range,"all activated by CRZ, GnRH, and CRZ-ext",equally high,"all activated by CRZ, GnRH, and CRZ-ext; also recorded: also activated by CRZ-ext",6.02,high nanomolar range,,,,
"FTYTHTW-NH2 [CRZ, FTYTHTW-NH2]",,,,,,,,,8.16,,,,,
YSYSYGFAP-NH2,,,mid-to-low nanomolar physiological range,,,,,,5.42,,low nanomolar range,8.49,low nanomolar range,8.66
